Measurements as given in publication PMC9197168, “Structural Characterization of Mycobacterium abscessus Phosphopantetheine Adenylyl Transferase Ligand Interactions: Implications for Fragment-Based Drug Design” (Frontiers in Molecular Biosciences, 2022).
Read-outs that look alike come from different tables or passages of the source.

Columns and labels:
[1] = target: M. abscessus PPAT (Mycobacteroides abscessus, UniProt B1MDL6); format: binding, Mycobacterium abscessus; settings: Table 1; 10 μM PPAT, 5 mM compound, 5% DMSO
[2] = target: Mab PPAT (Mycobacteroides abscessus, UniProt B1MDL6); experiment: Isothermal titration calorimetry (ITC) on Mab PPAT; format: binding, Mycobacterium abscessus; settings: for Kd: ITC
Experimental: ITC experiments were done using an ITC200 (MicroCal) instrument. The Mab PPAT protein for ITC was dialysed overnight at 4°C in storage buffer (50 mM Tris-HCl pH 8.0, 150 mM NaCl) the same buffer was used for preparing the ligand solutions. The protein and ligands/fragments were used at a concentration of 72 μM and 1–5 mM, respectively. ITC recorded for ATP was done in buffer: 50 mM Hepes pH 8.0, 150 mM NaCl, 5 mM MgCl2, at Mab PPAT concentration of 200 uM and 3 mM ATP. Buffer components and other constituents like DMSO were kept constant in both protein and ligand solutions. Ligands to buffer titrations were subtracted in all cases and experiments were repeated at least twice. Data were analysed using the Origin software (OriginLab, Northampton, MA, United States).

[3] = target: Mtb PPAT; set-up: method as in El Bakali et al., 2020; settings: ref El Bakali et al., 2020; cited from earlier work
[4] = tested on: M. abscessus ATCC19977 whole-cell cultures; experiment: Whole-cell luciferase-reporter based luminescence assay; set-up: species or system Mycobacterium abscessus; settings: up to a concentration of 200 µM; in comparison to positive control Amikacin; data not shown
[5] = Mab PPAT 72 μM, 50 mM Tris-HCl pH 8.0, 150 mM NaCl, read-out: Kd (Mab PPAT)
[6] = Mab PPAT, 50 mM Tris-HCl pH 8.0, 150 mM NaCl, read-out: Kd

Chain of M. abscessus PPAT (B1MDL6 whole entry): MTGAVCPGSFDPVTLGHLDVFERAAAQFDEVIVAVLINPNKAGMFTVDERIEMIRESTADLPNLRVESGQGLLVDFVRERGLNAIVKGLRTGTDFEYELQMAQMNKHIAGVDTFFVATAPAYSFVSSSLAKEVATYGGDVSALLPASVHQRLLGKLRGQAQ
Chain of Mab PPAT (B1MDL6 whole entry, the tested form may be a part): as the sequence (B1MDL6 whole entry) above

Row | SMILES | ΔΤm [1] | other results
1 | O=C(O)c1cc2cc(F)ccc2[nH]1 [Fragment 7] | +3.5 °C | –
2 | O=C(O)C(O)c1cccc(Oc2ccccc2)c1 (stereo not shown) [Fragment 4] | +2.5 °C | –
3 | O=C(O)Cc1ccc2ccccc2c1 [Fragment 9] | +2.3 °C | –
4 | O=C(O)c1cnn(-c2ccccc2)c1OCCCc1c[nH]c2ccccc12 [Compound 20] | – | Kd [2, 5]: 3.2 ± 0.8 µM; binding affinity on Mab PPAT relative to that on Mtb PPAT ([2]; Mab PPAT versus Mtb PPAT (Kd 15 ± 4 µM)): ~5 fold; affinity relative to affinity of Mab PPAT for the substrate ATP ([2]; Mab PPAT, compound versus ATP): ≈ 7 fold; Kd [3]: 15 ± 4 µM; cellular activity on whole-cell cultures [4]: low cellular activity
5 | O=C(O)c1ccccc1C(=O)c1ccc(Cl)c([N+](=O)[O-])c1 [Fragment 6] | +4.5 °C | –
6 | O=C(O)CCc1c[nH]c2ccccc12 [Fragment 5] | +3.5 °C | Kd [2, 6]: 3200 ± 20 µM
7 | O=C(O)CCn1ccc2ccccc21 [Fragment 14] | +1 °C | –
8 | CC(C)(COP(=O)(O)OP(=O)(O)OC[C@H]1O[C@@H](n2cnc3c(N)ncnc32)[C@H](O)[C@@H]1OP(=O)(O)O)[C@@H](O)C(=O)NCCC(=O)NCCS [Coenzyme A, reference compound] | – | Kd [2, 5]: 8.2 ± 1.1 µM
9 | O=C(O)c1ccc2[nH]nc(Br)c2c1 [Fragment 2] | +12.5 °C | –
10 | Cc1ccc2oc(=O)cc(O)c2c1 [Fragment 15] | +0.5 °C | –
11 | O=C(O)C(O)Cc1c[nH]c2ccccc12 (stereo not shown) [Fragment 12] | +1.5 °C | –
12 | O=C(O)Cn1ccc2ccccc21 [Fragment 16] | -0.5 °C | –
13 | Cc1ccc(C(=O)O)c(C(=O)O)n1 [Fragment 10] | +2.0 °C | –
14 | O=C(O)c1cc2ccccc2cc1O [Fragment 11] | +2.0 °C | –
15 | O=C(O)c1ccc2cc(F)ccc2c1 [Fragment 8] | +2.9 °C | –
16 | N#Cc1ccc(Cl)cc1N [Fragment 13] | +1.5 °C | –
17 | Cc1c(C(=O)O)cnn1-c1ccccc1 [Fragment 1] | +6 °C | Kd [2, 6]: 540 ± 20 µM
18 | Cc1cn(CCC(=O)O)c2ccccc12 [Fragment 3] | +0.5 °C | –
19 | Nc1ncnc2c1ncn2[C@@H]1O[C@H](COP(=O)(O)OP(=O)(O)OP(=O)(O)O)[C@@H](O)[C@H]1O [ATP, Adenosine 5′ triphosphate, reference compound] | – | Kd ([2]; 50 mM Hepes pH 8.0, 150 mM NaCl, 5 mM MgCl2, Mab PPAT 200 uM, 3 mM ATP, read-out: Kd): 20.1 ± 3.3 µM
